Test results reported in patent US7307098B2, “Indole derivatives and drugs containing the same” (Meiji Dairies Corporation, priority 2002, dated 2007).

tested on: neurospheres which are clusters of neural stem cells; assay: Test Example 1: differentiation of neurospheres into neurons (immunofluorescence, confocal microscope); format: cell-based; details: Mus musculus, Neural stem cell; test compound 10^−6M, cultivation typically 24 hours, Anti-MAP2 labeling of neurons, control = 100; read-out: Percentage of neuron in relation to control
Method: Neural stem cell was produced from […] in accordance with the method of Weiss and Reynolds (1996). More specifically, striate body was extirpated from mouse embryo, and the cells were dispersed in a culture medium containing EGF (20 ng/mL). The cells were cultured under the conditions of 5% CO2 and 37° C. for 5 days. The culture was then centrifuged at 400 rpm in Dissociation Medium (manufactured by Sigma) for 5 minutes, and neurospheres which are cluster of the neural stem cells were obtained. The neurospheres were dispersed in the culture medium, and cultivation was conducted under the same conditions to produce secondary neurospheres.
A sterilized cover glass was placed in the well of 24 well plate, treated overnight with polyornithine solution (30 μg/mL), and washed three times with phosphate buffered saline. Neurospheres were inoculated on the cover glass at 20 to 50 cells/cover glass. The test compound that has been adjusted to the concentration of 10^−6M with ethanol was applied to the cover glass, and the cultivation was continued for a period sufficient for differentiation of the neurospheres (typically 24 hours). The indole derivatives obtained in the Examples were used for the test compounds, and the control cells were cultivated without using such test compound.
Sufficiently differentiated neurospheres were fixed with 4% p-formaldehyde, washed with phosphate buffered saline, and after adding Triton-X100, washed again with phosphate buffered saline. Anti-MAP2 (2a+2b) (Sigma) which is a mouse monoclonal antibody used for labeling neurons and Anti-O4 (Boeringher) which is a mouse monoclonal antibody used for labeling oligodendrocytes, and Anti-GFAP (DAKO) which is a rabbit monoclonal antibody used for labeling astrocytes were added, and the cultivation was continued at room temperature for 1 hour or overnight at 4° C. Anti-mouse IgM antibody and fluorescence indicator were added, and cultivation was continued at room temperature for 1 hour. After washing with phosphate buffered saline, the cover glass was placed on a confocal microscope to observe the differentiation of the neurospheres.

Q: With `COc1ccc2[nH]cc(CCCCCCCCCCCCCCO)c2c1` [1-1a, n=14, 14-(5-methoxy-1H-indole-3-yl)-tetradecane-1-ol] as the compound, how does the activity at 1 µM read?
A: Its activity at 1 µM is 143%.

Q: With `COc1ccc2[nH]cc(CCCCCCCCCCCCCCCCO)c2c1` [1-1a, n=16, 16-(5-methoxy-1H-indole-3-yl)-hexadecane-1-ol] as the compound, how does the activity at 1 µM read?
A: Its activity at 1 µM is 168%.

Q: How did the activity at 1 µM turn out when `COc1ccc2[nH]cc(CCCCCCCCCCCCCCCCCCO)c2c1` [1-1a, n=18, 18-(5-methoxy-1H-indole-3-yl)-octadecane-1-ol] was run?
A: Its activity at 1 µM is 169%.

Q: `COc1cccc2[nH]cc(CCCCCCCCCCCCCCCCO)c12` [1-1b, n=16, 16-(4-methoxy-1H-indole-3-yl)-hexadecane-1-ol] was tested. Which activity at 1 µM did it give?
A: Its activity at 1 µM is 133%.

Q: `COc1ccc2c(CCCCCCCCCCCCCCCCO)c[nH]c2c1` [1-1c, n=16, 16-(6-methoxy-1H-indole-3-yl)-hexadecane-1-ol] was tested. Which activity at 1 µM did it give?
A: The activity at 1 µM was 135%.

Q: How did the activity at 1 µM turn out when `COc1ccc2[nH]c(CCCCCCCCCCCCCCCCO)cc2c1` [1-2a, n=16, 16-(5-methoxy-1H-indole-2-yl)-hexadecane-1-ol] was run?
A: The activity at 1 µM was 135%.

Q: How did the activity at 1 µM turn out when `COc1cccc2[nH]c(CCCCCCCCCCCCCCO)cc12` [1-2b, n=14, 14-(4-methoxy-1H-indole-2-yl)-tetradecane-1-ol] was run?
A: The activity at 1 µM was 147%.

Q: `COc1cccc2[nH]c(CCCCCCCCCCCCCCCCO)cc12` [1-2b, n=16, 16-(4-methoxy-1H-indole-2-yl)-hexadecane-1-ol] was tested. Which activity at 1 µM did it give?
A: The activity at 1 µM was 184%.

Q: For `COc1cccc2cc(CCCCCCCCCCCCCCCCO)[nH]c12` [1-2c, n=16, 16-(7-methoxy-1H-indole-2-yl)-hexadecane-1-ol], which activity at 1 µM is on record?
A: Its activity at 1 µM is 128%.
